From patent US10266513B2 (Pfizer Inc., priority 2012, dated 2019)

Legend:
[1] = molecular target: human full-length BTK Kinase (Homo sapiens (Human), UniProt Q06187); assay: Human BTK LanthaScreen Assay (TR-FRET); type: biochemical; conditions: 50 μM ATP, FAM-Srctide peptide substrate, read-out: BTK Inhibition IC50
Text: Human BTK LanthaScreen Assay

Human B cells = assay: Human Primary B Cell Proliferation Assay (3H-thymidine incorporation, anti-human IgM stimulated); type: cell-based; conditions: B-cell, purified human B cells, 50 μg/mL anti-human IgM F(ab')2, 72 hours
Description: Human Primary B Cell Proliferation Assay
Human B cells were purified from buffy coats using the human B cell RosetteSep kit per manufacturer's instructions. Purified cells were resuspended in RPMI-10% HIFCS, 2 mM L-glutamine, 100 U/mL penicillin, 100 μg/ml streptomycin, incubated with compounds for 1 hour at 37° C. and then stimulated with 50 μg/mL anti-human IgM F(ab′)2 for 72 hours. ^3H-thymidine was included in the culture media for the final 8-16 hours. Cells were harvested and ^3H-thymidine incorporation was measured.
Human B cell Proliferation Assay

human whole blood = assay: Human Whole Blood Histamine Assay (anti-IgE induced histamine release); type: cell-based; conditions: heparinized human whole blood, anti-human-IgE 2 μg/ml, histamine release by ELISA; read-out: HWB IC50
Description: Human Whole Blood Histamine Assay
Heparinized human whole blood (200 μl) was plated in 96-well V-bottom assay plates (VWR). Compounds diluted in 100% DMSO (1 μl) were added and incubated at 37° C. for 120 minutes. Anti-human-IgE antibody (KPL) was added to a final concentration of 2 μg/ml and assay plates incubated for 30 minutes at 37° C. Plates were spun at 2000 rpm for 8 minutes and the analyzed for histamine release by ELISA kits (Beckman Coulter).
Inhibition curves and IC50 values are determined using Excel-fit.

human EGFR kinase domain = human EGFR kinase domain (Homo sapiens (Human), UniProt P00533); assay: Human EGFR LanthaScreen Selectivity Assay (TR-FRET); type: biochemical; conditions: 20 μM ATP
Chain of human EGFR kinase domain (P00533 712-979): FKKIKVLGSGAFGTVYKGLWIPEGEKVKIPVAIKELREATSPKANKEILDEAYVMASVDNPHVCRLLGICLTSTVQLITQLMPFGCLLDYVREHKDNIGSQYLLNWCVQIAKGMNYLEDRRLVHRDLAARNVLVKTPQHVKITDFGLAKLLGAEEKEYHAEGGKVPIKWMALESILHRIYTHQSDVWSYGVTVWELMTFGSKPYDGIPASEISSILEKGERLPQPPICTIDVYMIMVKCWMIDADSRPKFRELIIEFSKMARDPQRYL
Description: The kinase reaction mixtures were incubated at room temperature for 60 minutes before stopping the kinase activity by the addition of 15 mM EDTA. The extent of peptide phosphorylation by EGFR was detected using a Terbium-conjugated anti-phospho-Tyrosine antibody (Tb-PT66 antibody, invitrogen # PV3557).

Chain of human full-length BTK Kinase (Q06187 whole entry): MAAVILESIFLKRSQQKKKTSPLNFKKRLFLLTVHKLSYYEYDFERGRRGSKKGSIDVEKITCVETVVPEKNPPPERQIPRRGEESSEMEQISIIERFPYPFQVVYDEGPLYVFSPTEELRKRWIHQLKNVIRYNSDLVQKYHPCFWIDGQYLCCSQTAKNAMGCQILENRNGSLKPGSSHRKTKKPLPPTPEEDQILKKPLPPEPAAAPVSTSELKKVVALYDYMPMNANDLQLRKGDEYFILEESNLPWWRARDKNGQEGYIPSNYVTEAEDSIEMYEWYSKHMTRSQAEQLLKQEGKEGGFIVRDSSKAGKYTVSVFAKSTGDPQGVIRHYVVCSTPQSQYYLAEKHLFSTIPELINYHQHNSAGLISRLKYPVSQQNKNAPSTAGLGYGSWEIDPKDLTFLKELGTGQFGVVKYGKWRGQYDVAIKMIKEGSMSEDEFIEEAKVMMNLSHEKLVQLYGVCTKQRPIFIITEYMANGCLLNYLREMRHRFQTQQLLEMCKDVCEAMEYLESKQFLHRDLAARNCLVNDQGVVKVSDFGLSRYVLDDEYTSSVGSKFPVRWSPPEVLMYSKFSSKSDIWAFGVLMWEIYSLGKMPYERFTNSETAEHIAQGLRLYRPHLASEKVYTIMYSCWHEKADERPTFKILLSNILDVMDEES

Row | Structure (SMILES) | IC50 [1] [nM] | IC50 (Human B cells) [nM] | IC50 (human whole blood) [nM] | IC50 (human EGFR kinase domain) [nM]
1 | C=CC(=O)N1CCC[C@@H](n2nc(-c3ccc(Oc4ccc(Cl)cn4)cc3)c(C(N)=O)c2N)C1 [Example 157, 1-[(3R)-1-acryloylpiperidin-3-yl]-5-amino-3-{4-[(5-chloropyridin-2-yl)oxy]phenyl}-1H-pyrazole-4-carboxamide] | 1.3 | 24.2 | 98.7 | 29.7
2 | C=CC(=O)N1CCC[C@@H](n2nc(-c3ccc(Oc4cccc(C(F)(F)F)n4)cc3)c(C(N)=O)c2N)C1 [Example 161, 1-[(3R)-1-acryloylpiperidin-3-yl]-5-amino-3-(4-{[6-(trifluoromethyl)pyridin-2-yl]oxy}phenyl)-1H-pyrazole-4-carboxamide] | 1.2 | 3 | 52.7 | 89.8
3 | NC(=O)c1c(-c2ccc(Oc3cccc(C(F)(F)F)n3)cc2)nn([C@@H]2CCCN(C(=O)/C=C/CO)C2)c1N [Example 162, 5-amino-1-{(3R)-1-[(2E)-4-hydroxybut-2-enoyl]piperidin-3-yl}-3-(4-{[6-(trifluoromethyl)pyridin-2-yl]oxy}phenyl)-1H-pyrazole-4-carboxamide] | 9.8 | 103 | 343 | 14100
